This note sets out measurements from patent US20120220562A1, “Anti-Viral Compounds” (ABBOTT LABAORATORIES, priority 2011, published 2012).

SMILES strings stand for the structures.

For this assay, the system named is HCV 1b-Con1 replicon. The experiment in a line: HCV 1b-Con1 replicon assay in the presence of 5% FBS. In kind it is cell-based. Conditions: Hepatitis C virus.
As for `COC(=O)N[C@H](C(=O)N1CCC[C@H]1c1nc2ccc([C@H]3CC[C@H](c4ccc5nc([C@@H]6CCCN6C(=O)[C@@H](NC(=O)OC)C(C)C)[nH]c5c4)N3c3cc(F)c(N4CCC(c5ccc(OC)cc5)CC4)c(F)c3)cc2[nH]1)C(C)C` [Example 4.34, methyl {(2S)-1-[(2S)-2-{6-[(2R,5R)-1-{3,5-difluoro-4-[4-(4-methoxyphenyl)piperidin-1-yl]phenyl}-5-{2-[(2S)-1-{(2S)-2-[(methoxycarbonyl)amino]-3-methylbutanoyl}pyrrolidin-2-yl]-1H-benzimidazol-6-yl}pyrrolidin-2-yl]-1H-benzimidazol-2-yl}pyrrolidin-1-yl]-3-methyl-1-oxobutan-2-yl}carbamate], the EC50 was less than 0.1 nM. With `COC(=O)N[C@H](C(=O)N1CCC[C@H]1c1nc2cc([C@H]3CC[C@H](c4ccc5[nH]c([C@@H]6CCCN6C(=O)[C@@H](NC(=O)OC)C6CCOCC6)nc5c4)N3c3ccc(C(C)(C)C)cc3)ccc2[nH]1)C1CCOCC1` [Example 3.6, dimethyl ([(2R,5R)-1-(4-tert-butylphenyl)pyrrolidine-2,5-diyl]bis{1H-benzimidazole-5,2-diyl(2S)pyrrolidine-2,1-diyl[(1S)-2-oxo-1-(tetrahydro-2H-pyran-4-yl)ethane-2,1-diyl]})biscarbamate], the EC50 is less than 0.1 nM. For `COC(=O)NC(C(=O)N1CCC[C@H]1c1nc2cc([C@H]3CC[C@H](c4ccc5[nH]c([C@@H]6CCCN6C(=O)C(NC(=O)OC)C(C)C)nc5c4)N3c3cc(F)c(N4CCC(F)CC4)c(F)c3)ccc2[nH]1)C(C)C` (stereo partly drawn) [Example 1.6, methyl {1-[(2S)-2-{5-[(2R,5R)-1-[3,5-difluoro-4-(4-fluoropiperidin-1-yl)phenyl]-5-{2-[(2S)-1-{2-[(methoxycarbonyl)amino]-3-methylbutanoyl}pyrrolidin-2-yl]-1H-benzimidazol-5-yl}pyrrolidin-2-yl]-1H-benzimidazol-2-yl}pyrrolidin-1-yl]-3-methyl-1-oxobutan-2-yl}carbamate], the concentration for a half-maximal effect (EC50) is less than 0.1 nM. Take `COC(=O)N[C@H](C(=O)N1CCC[C@H]1c1nc2c(C)c([C@H]3CC[C@@H](c4ccc5[nH]c([C@@H]6CCCN6C(=O)[C@@H](NC(=O)OC)C(C)C)nc5c4C)N3c3ccc(C(C)(C)C)cc3)ccc2[nH]1)C(C)C` [Example 6.8, methyl {(2S)-1-[(2S)-2-{5-[(2R,5S)-1-(4-tert-butylphenyl)-5-{2-[(2S)-1-{(2S)-2-[(methoxycarbonyl)amino]-3-methylbutanoyl}pyrrolidin-2-yl]-4-methyl-1H-benzimidazol-5-yl}pyrrolidin-2-yl]-4-methyl-1H-benzimidazol-2-yl}pyrrolidin-1-yl]-3-methyl-1-oxobutan-2-yl}carbamate]: the 50% effective concentration (EC50) was less than 0.1 nM.

As for `COC(=O)N[C@H](C(=O)N1CCC[C@H]1c1nc2cc([C@H]3CC[C@H](c4cc5nc([C@@H]6CCCN6C(=O)[C@@H](NC(=O)OC)C(C)C)[nH]c5cc4F)N3c3cc(F)c(N4CCC5(CC4)CC5)c(F)c3)c(F)cc2[nH]1)C(C)C` [Example 6.12, methyl {(2S)-1-[(2S)-2-{5-[(2R,5R)-1-[4-(6-azaspiro[2.5]oct-6-yl)-3,5-difluorophenyl]-5-{6-fluoro-2-[(2S)-1-{(2S)-2-[(methoxycarbonyl)amino]-3-methylbutanoyl}pyrrolidin-2-yl]-1H-benzimidazol-5-yl}pyrrolidin-2-yl]-6-fluoro-1H-benzimidazol-2-yl}pyrrolidin-1-yl]-3-methyl-1-oxobutan-2-yl}carbamate], the half-maximal effective concentration (EC50) was less than 0.1 nM. As to `COC(=O)N[C@H](C(=O)N1CCC[C@H]1c1nc2cc([C@H]3CC[C@H](c4ccc5[nH]c([C@@H]6CCCN6C(=O)[C@@H](NC(=O)OC)C6CCCC6)nc5c4)N3c3cc(F)c(N4CCC(c5ccccc5)CC4)c(F)c3)ccc2[nH]1)C1CCCC1` [Example 3.24, dimethyl ({(2R,5R)-1-[3,5-difluoro-4-(4-phenylpiperidin-1-yl)phenyl]pyrrolidine-2,5-diyl}bis{1H-benzimidazole-5,2-diyl(2S)pyrrolidine-2,1-diyl[(1S)-1-cyclopentyl-2-oxoethane-2,1-diyl]})biscarbamate], the EC50 is less than 0.1 nM.

For the compound `COC(=O)N[C@H](C(=O)N1CCC[C@H]1c1nc2cc([C@H]3CC[C@H](c4ccc5[nH]c([C@@H]6CCCN6C(=O)[C@@H](NC(=O)OC)C(C)C)nc5c4)N3c3cc(F)c(N4CC=C(c5ccccc5)CC4)c(F)c3)ccc2[nH]1)C(C)C` [Example 5.15, methyl {(2S)-1-[(2S)-2-{5-[(2R,5R)-1-[3,5-difluoro-4-(4-phenyl-3,6-dihydropyridin-1(2H)-yl)phenyl]-5-{2-[(2S)-1-{(2S)-2-[(methoxycarbonyl)amino]-3-methylbutanoyl}pyrrolidin-2-yl]-1H-benzimidazol-5-yl}pyrrolidin-2-yl]-1H-benzimidazol-2-yl}pyrrolidin-1-yl]-3-methyl-1-oxobutan-2-yl}carbamate], the 50% effective concentration (EC50) was less than 0.1 nM. With `COC(=O)N[C@H](C(=O)N1CCC[C@H]1c1nc2ccc([C@H]3CC[C@H](c4ccc5nc([C@@H]6CCCN6C(=O)[C@@H](NC(=O)OC)C(C)C)[nH]c5c4)N3c3cc(F)c(N4CCC(c5ccc([Si](C)(C)C)cc5)CC4)c(F)c3)cc2[nH]1)C(C)C` [Example 2.14, methyl {(2S)-1-[(2S)-2-{5-[(2R,5R)-1-(3,5-difluoro-4-{4-[4-(trimethylsilyl)phenyl]piperidin-1-yl}phenyl)-5-{2-[(2S)-1-{(2S)-2-[(methoxycarbonyl)amino]-3-methylbutanoyl}pyrrolidin-2-yl]-1H-benzimidazol-5-yl}pyrrolidin-2-yl]-1H-benzimidazol-2-yl}pyrrolidin-1-yl]-3-methyl-1-oxobutan-2-yl}carbamate], the concentration for a half-maximal effect (EC50) was less than 0.1 nM.

In the case of `COC(=O)N[C@H](C(=O)N1CCC[C@H]1c1nc2ccc([C@H]3CC[C@H](c4ccc5nc([C@@H]6CCCN6C(=O)[C@@H](NC(=O)OC)C(C)C)[nH]c5c4)N3c3ccc(S(F)(F)(F)(F)F)cc3)cc2[nH]1)C(C)C` [Example 4.13, methyl {(2S)-1-[(2S)-2-(6-{(2R,5R)-5-{2-[(2S)-1-{(2S)-2-[(methoxycarbonyl)amino]-3-methylbutanoyl}pyrrolidin-2-yl]-1H-benzimidazol-6-yl}-1-[4-(pentafluoro-lambda˜6˜-sulfanyl)phenyl]pyrrolidin-2-yl}-1H-benzimidazol-2-yl)pyrrolidin-1-yl]-3-methyl-1-oxobutan-2-yl}carbamate], the 50% effective concentration (EC50) was less than 0.1 nM. For the compound `COC(=O)N[C@H](C(=O)N1CCC[C@H]1c1nc2cc([C@H]3CC[C@H](c4cc5nc([C@@H]6CCCN6C(=O)[C@@H](NC(=O)OC)C(C)C)[nH]c5cc4F)N3c3cc(F)c(N4CCC(C(C)(C)C)CC4)c(F)c3)c(F)cc2[nH]1)C(C)C` [Example 4.27, methyl {(2S)-1-[(2S)-2-{5-[(2R,5R)-1-[4-(4-tert-butylpiperidin-1-yl)-3,5-difluorophenyl]-5-{6-fluoro-2-[(2S)-1-{(2S)-2-[(methoxycarbonyl)amino]-3-methylbutanoyl}pyrrolidin-2-yl]-1H-benzimidazol-5-yl}pyrrolidin-2-yl]-6-fluoro-1H-benzimidazol-2-yl}pyrrolidin-1-yl]-3-methyl-1-oxobutan-2-yl}carbamate], the EC50 is less than 0.1 nM. Regarding `COC(=O)N[C@H](C(=O)N1CCC[C@H]1c1nc2cc([C@@H]3CC[C@@H](c4cc5nc([C@@H]6CCCN6C(=O)[C@@H](NC(=O)OC)[C@@H](C)OC)[nH]c5cc4F)N3c3cc(F)c(N4CCN(c5c(F)cccc5F)CC4)c(F)c3)c(F)cc2[nH]1)[C@@H](C)OC` [Example 3.49, methyl {(2S,3R)-1-[(2S)-2-{5-[(2S,5S)-1-{4-[4-(2,6-difluorophenyl)piperazin-1-yl]-3,5-difluorophenyl}-5-(6-fluoro-2-{(2S)-1-[N-(methoxycarbonyl)-O-methyl-L-threonyl]pyrrolidin-2-yl}-1H-benzimidazol-5-yl)pyrrolidin-2-yl]-6-fluoro-1H-benzimidazol-2-yl}pyrrolidin-1-yl]-3-methoxy-1-oxobutan-2-yl}carbamate], the 50% effective concentration (EC50) was less than 0.1 nM. Turning to `COC(=O)N[C@H](C(=O)N1C2CCC(C2)[C@H]1c1nc2cc([C@H]3CC[C@H](c4ccc5[nH]c([C@@H]6C7CCC(C7)N6C(=O)[C@@H](NC(=O)OC)C(C)C)nc5c4)N3c3cc(F)c(N4CCCCC4)c(F)c3)ccc2[nH]1)C(C)C` [Example 3.19, methyl {(2S)-1-[(3S)-3-{5-[(2R,5R)-1-[3,5-difluoro-4-(piperidin-1-yl)phenyl]-5-{2-[(3S)-2-{(2S)-2-[(methoxycarbonyl)amino]-3-methylbutanoyl}-2-azabicyclo[2.2.1]hept-3-yl]-1H-benzimidazol-5-yl}pyrrolidin-2-yl]-1H-benzimidazol-2-yl}-2-azabicyclo[2.2.1]hept-2-yl]-3-methyl-1-oxobutan-2-yl}carbamate], the EC50 is less than 0.1 nM. With `COC(=O)N[C@H](C(=O)N1CCC[C@H]1c1nc2cc([C@H]3CC[C@H](c4cc5nc([C@@H]6CCCN6C(=O)[C@@H](NC(=O)OC)[C@@H](C)OC)[nH]c5cc4F)N3c3cc(F)c(N4CCC(C(C)(C)C)CC4)c(F)c3)c(F)cc2[nH]1)[C@@H](C)OC` [Example 6.13, methyl {(2S,3R)-1-[(2S)-2-{5-[(2R,5R)-1-[4-(4-tert-butylpiperidin-1-yl)-3,5-difluorophenyl]-5-(6-fluoro-2-{(2S)-1-[N-(methoxycarbonyl)-O-methyl-L-threonyl]pyrrolidin-2-yl}-1H-benzimidazol-5-yl)pyrrolidin-2-yl]-6-fluoro-1H-benzimidazol-2-yl}pyrrolidin-1-yl]-3-methoxy-1-oxobutan-2-yl}carbamate] the figure was less than 0.1 nM; with `COC(=O)N[C@H](C(=O)N1CCC[C@H]1c1nc2ccc([C@H]3CC[C@H](c4cc5[nH]c([C@@H]6CCCN6C(=O)[C@@H](NC(=O)OC)C(C)C)nc5cc4F)N3c3cc(F)c(N4CCCCC4)c(F)c3)cc2[nH]1)C(C)C` [Example 4.43, methyl {(2S)-1-[(2S)-2-{6-[(2R,5R)-1-[3,5-difluoro-4-(piperidin-1-yl)phenyl]-5-{5-fluoro-2-[(2S)-1-{(2S)-2-[(methoxycarbonyl)amino]-3-methylbutanoyl}pyrrolidin-2-yl]-1H-benzimidazol-6-yl}pyrrolidin-2-yl]-1H-benzimidazol-2-yl}pyrrolidin-1-yl]-3-methyl-1-oxobutan-2-yl}carbamate], less than 0.1 nM.
